Assay results published in ChEMBL document CHEMBL1201862, “PubChem BioAssay data set” (2004).
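Compound exposure: 48 hours, 5 concentrations, 96-well plates. GI50 = concentration required for 50% inhibition of growth.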 Activity calls are given as the source filed them. Cut-off read from the data, not from the text of the source: active = GI50 up to about 1.1 µM and inactive = higher.

Assays:
Test in all cases: inhibition of tumour cell growth, NCI panel, 48 h
[1] = test system: NCI-H226
[2] = test system: MDA-MB-435
[3] = test system: DU-145
[4] = test system: HL-60
[5] = test system: COLO 205
[6] = test system: SK-MEL-28
[7] = test system: LOX IMVI
[8] = test system: OVCAR-3
[9] = test system: HCC 2998
[10] = test system: NCI-H23
[11] = test system: NCI/ADR-RES
[12] = test system: ACHN
[13] = test system: OVCAR-4
[14] = test system: Malme-3M
[15] = test system: HT-29
[16] = test system: SNB-19
[17] = test system: EKVX
[18] = test system: UO-31
[19] = test system: SR

Measured: GI50

CN(C)CCCN1c2ccc3ccccc3c2Sc2cccc(Cl)c21
inactive: [1] 7.11 µM | [2] 1.98 µM | [3] 4.54 µM | [4] 1.63 µM | [5] 1.85 µM | [6] 2.18 µM | [7] 1.97 µM | [8] 2.89 µM | [9] 1.61 µM | [10] 10.6 µM | [11] 5.56 µM | [12] 3.38 µM | [13] 4.4 µM | [14] 5.13 µM | [15] 2.04 µM | [16] 5.87 µM | [17] 2.38 µM | [18] 2.79 µM

O=C(O)C/C(=C\c1ccccc1)C(=O)O
inactive: [1] > 100 µM | [2] > 100 µM | [3] > 100 µM | [4] > 100 µM | [5] > 100 µM | [6] > 100 µM | [7] > 100 µM | [8] > 100 µM | [9] > 100 µM | [10] > 100 µM | [11] > 100 µM | [12] > 100 µM | [13] > 100 µM | [14] > 100 µM | [15] > 100 µM | [16] > 100 µM | [17] > 100 µM | [18] > 100 µM

O=C(O)C1(Nc2ccc(Cl)cc2)CCCC1
inactive: [1] > 100 µM | [2] > 100 µM | [3] > 100 µM | [4] 77.8 µM | [5] 33 µM | [6] > 100 µM | [7] > 100 µM | [8] > 100 µM | [10] > 100 µM | [11] > 100 µM | [12] > 100 µM | [13] > 100 µM | [14] > 100 µM | [15] > 100 µM | [16] > 100 µM | [17] > 100 µM | [19] > 100 µM | [18] > 100 µM

[O-][n+]1onc2c1CCC(=N\O)/C2=N/Nc1ccccc1
inactive: [1] > 100 µM | [2] > 100 µM | [3] > 100 µM | [4] 49.4 µM | [5] > 100 µM | [6] > 100 µM | [7] > 100 µM | [8] > 100 µM | [10] > 100 µM | [11] > 100 µM | [12] > 100 µM | [13] > 100 µM | [14] > 100 µM | [15] > 100 µM | [16] > 100 µM | [17] > 100 µM | [19] > 100 µM | [18] > 100 µM

CN(C)c1ccc(/C=C/C=c2/c3ccccc3n3c2cc(-c2ccccc2)[n+]3C)cc1
active: [1] 0.454 µM | [2] 0.151 µM | [3] 0.0931 µM | [4] 0.075 µM | [5] 0.0698 µM | [6] 0.459 µM | [7] 0.105 µM | [8] 0.0746 µM | [9] 0.303 µM | [10] 0.188 µM | [12] 0.218 µM | [13] 0.414 µM | [14] 0.492 µM | [15] 0.275 µM | [16] 0.127 µM | [17] 0.254 µM | [18] 0.333 µM
inactive: [11] 3.43 µM

COc1cccc2c1OC(c1cccc3ccccc13)C([N+](=O)[O-])=C2 (stereo not drawn)
inactive: [1] 2 µM | [2] 1.51 µM | [3] 2.65 µM | [5] 1.92 µM | [6] 1.53 µM | [8] 1.34 µM | [10] 1.84 µM | [11] 1.71 µM | [12] 1.6 µM | [13] 3.32 µM | [14] 1.75 µM | [15] 1.92 µM | [16] 1.53 µM | [17] 3.07 µM | [18] 1.44 µM
active: [4] 0.612 µM | [7] 1.04 µM | [19] 0.604 µM

FC(F)(F)c1cc(Cl)cnc1N/N=C(/c1ccccc1)c1ccccn1
inactive: [1] 1.57 µM | [2] 4.85 µM | [3] 4.46 µM | [5] 2.03 µM | [6] 6.92 µM | [8] 1.82 µM | [9] 8 µM | [10] 2.55 µM | [11] 2.34 µM | [12] 2.92 µM | [13] 6.67 µM | [16] 4.67 µM | [18] 2.94 µM
active: [15] 0.248 µM | [17] 1.03 µM | [19] 0.708 µM

C[C@]12CC/C(=N\OCCN3CCCCC3)C=C1CCC1C2CC[C@@]2(C)C1CC[C@]2(C)O (stereo partly drawn)
inactive: [1] 3.3 µM | [2] 2.3 µM | [3] 13.2 µM | [5] 8.17 µM | [6] 11.2 µM | [7] 4.11 µM | [8] 17 µM | [9] 9.27 µM | [10] 13.4 µM | [11] 5.27 µM | [12] 11.4 µM | [13] 19.8 µM | [14] 11.2 µM | [15] 2.28 µM | [16] 11.9 µM | [17] 16.2 µM | [18] 11.1 µM

Cc1ccccc1-n1c(=O)c2ncn(C3CCCO3)c2n(-c2ccccc2C)c1=S (stereo not drawn)
inactive: [1] > 100 µM | [2] > 100 µM | [3] > 100 µM | [4] > 100 µM | [5] > 100 µM | [7] > 100 µM | [8] > 100 µM | [9] > 100 µM | [10] > 100 µM | [11] > 100 µM | [12] > 100 µM | [13] > 10 µM | [14] > 100 µM | [15] > 100 µM | [16] > 100 µM | [17] > 100 µM | [18] > 100 µM

O=C(O)c1ccc(/N=C(\C(=N\c2ccc(C(=O)O)cc2)c2ccccc2)c2ccccc2)cc1
inactive: [1] > 100 µM | [2] > 100 µM | [3] > 100 µM | [5] > 100 µM | [6] > 100 µM | [7] > 100 µM | [8] > 100 µM | [9] > 100 µM | [10] > 100 µM | [11] > 100 µM | [12] > 100 µM | [13] > 100 µM | [16] > 100 µM | [17] > 100 µM | [19] > 100 µM | [18] > 100 µM

COc1ccc(NC(=O)CC(=O)NN)cc1
inactive: [1] > 100 µM | [2] > 100 µM | [3] > 100 µM | [4] > 100 µM | [5] > 100 µM | [7] > 100 µM | [8] > 100 µM | [10] > 100 µM | [11] > 100 µM | [12] > 100 µM | [13] > 100 µM | [14] > 100 µM | [15] > 100 µM | [16] > 100 µM | [17] > 100 µM | [19] > 100 µM | [18] > 100 µM

C#CCn1c(=O)c(Cl)cn(/C(=C/C(=O)OCC)C(=O)OCC)c1=O
active: [5] 1.04 µM
inactive: [1] > 43.1 µM | [2] 18 µM | [3] 18.6 µM | [4] 3.05 µM | [6] 19 µM | [7] 8.32 µM | [8] 3.48 µM | [10] 18.5 µM | [11] 26 µM | [12] 2.03 µM | [13] 17.2 µM | [14] 3.86 µM | [15] 18.4 µM | [16] 39.8 µM | [17] 16.1 µM | [19] 2.32 µM | [18] 3.4 µM

O=c1[nH]c2c(c(=O)[nH]1)SC(c1ccccc1)C2 (stereo not drawn)
inactive: [1] > 100 µM | [2] > 100 µM | [3] > 100 µM | [4] > 100 µM | [5] > 100 µM | [6] > 100 µM | [7] > 100 µM | [8] > 100 µM | [9] > 100 µM | [10] > 100 µM | [11] > 100 µM | [12] > 100 µM | [13] > 100 µM | [14] > 100 µM | [15] > 100 µM | [16] > 100 µM | [17] 72.1 µM | [18] > 100 µM

CCOC(=O)C1=CN2C(=N[C@H]3CCCC[C@@H]32)NC1=O
inactive: [1] > 100 µM | [2] > 100 µM | [3] > 100 µM | [4] > 100 µM | [5] > 100 µM | [6] > 100 µM | [7] > 100 µM | [8] > 100 µM | [9] > 100 µM | [10] > 100 µM | [11] > 100 µM | [12] > 100 µM | [13] > 100 µM | [14] > 100 µM | [15] > 100 µM | [16] > 100 µM | [17] > 100 µM | [18] > 100 µM

CC(C)[Si](OC12CCC(CC1O)CC2CO)(C(C)C)C(C)C (stereo not drawn)
inactive: [1] 17.3 µM | [2] 16.1 µM | [3] 16.9 µM | [4] 1.34 µM | [5] 18 µM | [6] 20.4 µM | [8] 14.5 µM | [10] 12.8 µM | [11] 15 µM | [12] 14.2 µM | [13] 11.5 µM | [15] 15.5 µM | [16] 15.3 µM | [19] 7.55 µM | [18] 13.9 µM

C=C1C(NC)CCC23CC24CCC2(C)C(C(C)=O)C(O)CC2(C)C4CCC13 (stereo not drawn)
inactive: [1] > 100 µM | [2] > 100 µM | [3] > 100 µM | [4] 62.7 µM | [5] > 100 µM | [6] > 100 µM | [7] 63.7 µM | [8] > 100 µM | [9] > 100 µM | [10] > 100 µM | [11] > 100 µM | [12] > 100 µM | [13] > 100 µM | [14] > 100 µM | [15] 21.9 µM | [16] > 100 µM | [17] > 100 µM | [18] > 100 µM
